According to US8765465B2, “Efficient production and use of highly cardiogenic progenitors and cardiomyocytes from embryonic and induced pluripotent stem cells” (Kyoto University, priority 2008, dated 2014):

B1: wnt3a: factor from R&D Systems (protein, UniProt P56704 19-352, looked up)
Protein Wnt-3a: SYPIWWSLAVGPQYSSLGSQPILCASIPGLVPKQLRFCRNYVEIMPSVAEGIKIGIQECQHQFRGRRWNCTTVHDSLAIFGPVLDKATRESAFVHAIASAGVAFAVTRSCAEGTAAICGCSSRHQGSPGKGWKWGGCSEDIEFGGMVSREFADARENRPDARSAMNRHNNEAGRQAIASHMHLKCKCHGLSGSCEVKTCWWSQPDFRAIGDFLKDKYDSASEMVVEKHRESRGWVETLRPRYTYFKVPTERDLVYYEASPNFCEPNPETGSFGTRDRTCNVSSHGIDGCDLLCCGRGHNARAERRREKCRCVFHWCCYVSCQECTRVYDVHTCK
B2: Dkk1: factor from R&D Systems (protein, UniProt O94907 32-266, looked up)
Dickkopf-related protein 1: TLNSVLNSNAIKNLPPPLGGAAGHPGSAVSAAPGILYPGGNKYQTIDNYQPYPCAEDEECGTDEYCASPTRGGDAGVQICLACRKRRKRCMRHAMCCPGNYCKNGICVSSDQNHFRGEIEETITESFGNDHSTLDGYSRRTTLSSKMYHTKGQEGSVCLRSSDCASGLCCARHFWSKICKPVLKEGQVCTKHRRKGSHGLEIFQRCYCGEGLSCRIQKDHHQASNSSRLHTCQRH

Key:
[1] = tested on: Flk1+ mesoderm cells from EMG7 mouse ES cells; assay: Cardiomyocyte induction from ES cell-derived Flk1+ mesoderm cells on OP9 (experiment 1); type: cell-based; conditions: added to Flk1+ cells
Procedure: Undifferentiated ES cells were cultured on OP9 cells or type IV collagen (Col. IV)-coated dishes (ES-d0) for 96-108 h in differentiation medium (see Methods) to induce differentiation to Flk1^+ cells. Flk1^+/E-cadherin^− mesoderm cells obtained by FACS were plated onto OP9 stroma cells to induce further differentiation to cardiomyocytes (designated as Flk-d0). FCV cells appeared at Flk-d2 as Flk1^+/CXCR4^+/vascular endothelial cadherin^− population. Beating colonies started to be observed by Flk-d4. Appearance of alpha-MHC promoter-driven GFP^+ cardiomyocytes were evaluated and collected at Flk-d6. Experiment 1: differentiation from mesoderm to cardiomyocytes. […] Experiment 2: differentiation from undifferentiated ES cells to mesoderm. […] Experiment 3: differentiation from mesoderm to cardiac progenitors. […] Experiment 4: differentiation from cardiac progenitors to cardiomyocytes.
After 96-108 h of ES cell differentiation, cultured cells were harvested and stained with allophycocyanin (APC)-conjugated AVAS12 and FITC-conjugated ECCD2. […] PKH-negative populations were analyzed and sorted as ES cell-derived cells. […] For FACS for cardiomyocytes, cells were harvested after 6 days culture of Flk1^+ cells on OP9 cells (Flk-d6), GFP^+ population was evaluated and sorted as differentiated cardiomyocytes.

Flk1+ cells = assay: Mesoderm-specific treatment Flk-d0-2, cardiomyocytes at Flk-d6 (experiment 5); type: cell-based, mouse; conditions: added only Flk-d0-2
Text: Beating colonies started to be observed by Flk-d4. […] Experiment 1: differentiation from mesoderm to cardiomyocytes. […] Experiment 2: differentiation from undifferentiated ES cells to mesoderm. […] Experiment 3: differentiation from mesoderm to cardiac progenitors. […] Experiment 4: differentiation from cardiac progenitors to cardiomyocytes.
Medium was replaced every 2 days.

Row | Molecule | effect on cardiomyocyte induction (cTnT staining) [1] | cardiomyocytes at Flk-d6 after mesoderm-specific addition (Flk1+ cells) | effect on cardiomyocytes relative to that of CSA (Flk1+ cells)
1 | 11R-VIVIT | no significant effect | – | –
2 | C=CC[C@@H]1/C=C(\C)C[C@H](C)C[C@H](OC)[C@H]2O[C@@](O)(C(=O)C(=O)N3CCCC[C@H]3C(=O)O[C@H](/C(C)=C/[C@@H]3CC[C@@H](O)[C@H](OC)C3)[C@H](C)[C@@H](O)CC1=O)[C@H](C)C[C@@H]2OC [FK506] | no significant effect | – | –
3 | TGF-β | – | significant decrease | –
4 | B1 | – | significant decrease | –
5 | B2 | – | significantly increased | much weaker
